Experimental data from BindingDB's records for doi:10.1021/bi300490r (University of Pittsburgh, 2012).

Legend:
[1] = biological target: T1, DNA-(apurinic or apyrimidinic site) endonuclease (Homo sapiens, UniProt P27695); experiment: Molecular Beacon Assay
Protocol: A fluorescenc-based molecular beacon assay to measure APE-1 protein activity and inhibition was performed as described.

[2] = biological target: T1, DNA-(apurinic or apyrimidinic site) endonuclease; experiment: Gel-Based Assay
Excerpt: In addition to the real-time fluorescence assay for studying inhibition of APE-1 activity, we also employed a gel-based assay to visualize and quantify repair activity of APE-1 and its inhibition.

T1 sequence (P27695 whole entry): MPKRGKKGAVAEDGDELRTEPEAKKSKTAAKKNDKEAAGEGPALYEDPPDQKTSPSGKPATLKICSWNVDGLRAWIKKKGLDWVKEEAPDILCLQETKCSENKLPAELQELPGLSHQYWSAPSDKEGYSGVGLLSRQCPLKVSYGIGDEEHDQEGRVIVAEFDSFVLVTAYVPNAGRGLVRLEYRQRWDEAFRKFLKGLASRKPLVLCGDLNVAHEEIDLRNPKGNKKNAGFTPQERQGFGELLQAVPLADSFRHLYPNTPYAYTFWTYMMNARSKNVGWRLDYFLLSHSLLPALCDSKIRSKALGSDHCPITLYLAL

| Compound | Ki [1] | IC50 [2] |
| --- | --- | --- |
| CCn1c2ccccc2c2cc(CN=Nc3cc(C)nc4cc5c(cc34)OCO5)ccc21 [NSC332395, 4] | 0.12 µM | 4.1 µM |
| Cc1cc(N=NCc2c(C)n(C)n(-c3ccccc3)c2=O)c2cc3c(cc2n1)OCO3 [NSC332396, 5] | 0.68 µM | 34.4 µM |
| O=C(O)C(CCCCNc1ccc([N+](=O)[O-])cc1[N+](=O)[O-])Nc1ccc([N+](=O)[O-])cc1[N+](=O)[O-] (configuration not stated) [NSC89640, 9] | 13 µM |  |
| COc1ccc(C(Cc2ccccc2)/N=N/c2ccc([N+](=O)[O-])c([N+](=O)[O-])c2)cc1 (configuration not stated) [NSC131534, 11] | 6.7 µM |  |
| COc1cccc(CN=Nc2cc(C)nc3cc4c(cc23)OCO4)c1 [NSC332384, 2] | 0.22 µM | 10.1 µM |
| Cc1ccc2nc(C)cc(N=NC(C)c3cn(C)n(-c4ccccc4)c3=O)c2c1 (configuration not stated) [NSC300598, 7] | 10.9 µM |  |
| O=C(/C=C\c1ccc([N+](=O)[O-])cc1)NCCCCNC(=O)/C=C/c1ccc([N+](=O)[O-])cc1 [NSC107215, 10] | 17 µM |  |
| Cc1cc(N=NCc2ccc3c(c2)OCO3)c2cc3c(cc2n1)OCO3 [NSC332389, 3] | 0.19 µM | 2.9 µM |

Other lines, results leading:

| Ki [1] | IC50 [2] | Compound |
| --- | --- | --- |
| 37 µM |  | O=C(CC(=Nc1ccccc1)C(=O)c1ccccc1)c1ccccc1 [NSC402686, 14] |
|  | > 100 µM | C/C(=N\Nc1cc(C)c2ccccc2n1)c1cn(C)n(-c2ccccc2)c1=O [NSC332410, 8] |
| 0.18 µM | 4.4 µM | Cc1cc(N=NC(C)c2cn(C)n(-c3ccccc3)c2=O)c2cc3c(cc2n1)OCO3 (configuration not stated) [NSC332398, 1] |
| 4.9 µM |  | N=c1[nH]nc2nc(CC(=O)c3ccccc3[N+](=O)[O-])c(CC(=O)c3ccccc3[N+](=O)[O-])nn12 [NSC614430, 13] |
